The target in this assay is Botulinum neurotoxin type A (Clostridium botulinum, UniProt P0DPI0).
Sequence of Botulinum neurotoxin type A (P0DPI0 2-448 limits assumed): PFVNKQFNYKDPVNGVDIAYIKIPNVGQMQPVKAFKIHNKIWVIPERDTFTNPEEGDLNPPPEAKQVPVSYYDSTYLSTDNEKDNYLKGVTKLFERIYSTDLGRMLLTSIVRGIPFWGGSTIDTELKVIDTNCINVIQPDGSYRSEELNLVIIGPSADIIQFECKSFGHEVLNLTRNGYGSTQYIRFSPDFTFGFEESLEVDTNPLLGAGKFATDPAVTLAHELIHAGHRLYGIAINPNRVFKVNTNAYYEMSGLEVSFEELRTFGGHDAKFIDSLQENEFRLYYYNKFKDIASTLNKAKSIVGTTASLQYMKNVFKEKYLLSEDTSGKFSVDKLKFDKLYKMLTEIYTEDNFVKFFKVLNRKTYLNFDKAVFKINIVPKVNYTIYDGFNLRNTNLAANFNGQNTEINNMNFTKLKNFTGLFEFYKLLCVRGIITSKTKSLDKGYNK

The Ki is a dissociation constant, usually derived from enzyme kinetics or from competition with a known ligand. As for `COC(=O)c1ccc(O)c2nc3c(C=O)c(O)cc(O)c3nc12` [LOMOFUNGIN], the Ki was found to be 25 µM.

Source of the values: ChEMBL document CHEMBL2321774, “The C-terminus of Botulinum A Protease Has Profound and Unanticipated Kinetic Consequences Upon the Catalytic Cleft” (ACS Med Chem Lett, 2013).
